The values that follow come from US9326513B2, “Fungicidal compositions” (Syngenta Participations AG, priority 2011, dated 2016).

Where two headings read alike, the source gives them in different places.

The test system of assay [1] is Septoria tritici. Description: Septoria tritici on wheat, preventive treatment. It is filed as in vivo. Conditions: solo, wheat Riband, 1 day preventive, 18 days after application.
Assay [2] has as its system Septoria tritici. Description: Septoria tritici (leaf blotch), YBG microtiter plate, photometric growth inhibition after 6 days. It is filed as cell-based. The settings on record: Zymoseptoria tritici, 144 h. An excerpt: In the following Tables ‘Activity (%)’ means the assessed experimental activity (% disease control in this test when compared to untreated control leaf disks under the same conditions, which show extensive disease development) and “P” is the expected value calculated (expected) activity according to the COLBY formula (see above). The column headed ‘S?’ indicates whether or not synergy was observed, with ‘y’ meaning that synergy was observed.
Septoria tritici (Leaf Blotch):
After placing solutions of the test compounds (containing 0.2% DMSO) into a microtiter plate (96-well format), an equal amount of the nutrient broth (YBG) was added to each of the well. Finally the fungal spore solution was added. The test plates were incubated at 20° C. The inhibition of growth was determined photometrically after 6 days and the activity calculated in relation to untreated control.

The subject of assay [3] is Septoria tritici. Put plainly: Septoria tritici (leaf blotch), PDB microtiter plate, visual after 72 hrs. It is filed as cell-based.
Assay [4] has as its system Mycosphaerella arachidis (y. Cercospora arachidicola). Description: Mycosphaerella arachidis (brown leaf spot of groundnut), PDB microtiter plate, visual after 5-6 days. It is filed as cell-based.
Assay [5] has as its system Monographella nivalis (syn. Microdochium nivale, Fusarium nivale). Description: Monographella nivalis (snow mould, foot rot of cereals), PDB microtiter plate, visual after 72 hrs. It is filed as cell-based. The settings on record: applied alone; for inhibition at 0.015625 ppm: rate 0.015625 ppm.
In another assay the test system is Botrytis cinerea. Put plainly: Botrytis cinerea (gray mould), PDB microtiter plate, visual after 72 hrs. It is filed as cell-based. Conditions: for inhibition at 0.125 ppm: rate 0.125 ppm; for inhibition at 0.25 ppm: rate 0.25 ppm; for inhibition at 0.5 ppm: rate 0.5 ppm.
Where [6] appears, read: Zymoseptoria tritici, single compound.
Setting [7] is: Zymoseptoria tritici, single compound, 0.0625 ppm.
Where [8] appears, read: Mycosphaerella arachidis, single compound, 0.00390625 ppm, read-out: Activity (%).
Where [9] appears, read: Mycosphaerella arachidis, single compound, 0.0078125 ppm, read-out: Activity (%).
Setting [10] is: Mycosphaerella arachidis, single compound, 0.015625 ppm, read-out: Activity (%).
[11] abbreviates: Mycosphaerella arachidis, single compound, 0.03125 ppm, read-out: Activity (%).
Where [12] appears, read: Mycosphaerella arachidis, single compound, 0.0625 ppm, read-out: Activity (%).
[13] abbreviates: Monographella nivalis, 0.0625 ppm.
The mark [14] stands for this setting: Monographella nivalis, 0.125 ppm.
Where [15] appears, read: Monographella nivalis, 0.25 ppm.
[16] abbreviates: Monographella nivalis, rate 0.03125 ppm.
[17] abbreviates: Monographella nivalis, rate 0.0625 ppm.
[18] abbreviates: Monographella nivalis, rate 0.125 ppm.
[19] abbreviates: Botrytis cinerea, single compound.
[20] abbreviates: Monographella nivalis, rate 0.25 ppm.
The mark [21] stands for this setting: Monographella nivalis, rate 0.5 ppm.
Where [22] appears, read: Monographella nivalis, rate 1 ppm.

Turning to `OC(c1cccnc1)c1c(-c2ccc(Cl)cc2F)noc1-c1ccc(F)cc1F` (centres unmarked) [(VII), [3-(4-chloro-2-fluoro-phenyl)-5-(2,4-difluoro-phenyl)-isoxazol-4-yl]-pyridin-3-yl-methanol, reference compound], the Activity with Septoria tritici [1] (3 g a.i./ha) came to 0%; in the assay with Septoria tritici [1] (9 g a.i./ha) it was 20%; in the assay on Septoria tritici [1] (27 g a.i./ha) it was 96%.
With `CCCN(CCOc1c(Cl)cc(Cl)cc1Cl)C(=O)n1ccnc1` [Prochloraz], in the assay with Septoria tritici [2] (read-out: Activity), the inhibition of growth at 0.015625 ppm turned out to be 48% and the inhibition of growth at 0.03125 ppm amounted to 80%.
Turning to `O=[N+]([O-])c1cc(C(F)(F)F)c(Cl)c([N+](=O)[O-])c1Nc1ncc(C(F)(F)F)cc1Cl` [Fluazinam], the inhibition at 0.015625 ppm in the assay on Septoria tritici [3] (Zymoseptoria tritici, single compound, 0.015625 ppm) is 0%; in assay [4] (setting [10]) it was 0%. Also, the figures for the inhibition at 0.03125 ppm (in the assay on Septoria tritici [3] (setting [6]); in assay [4] (setting [11])) were 20% and 0%, respectively. The inhibition at 0.0625 ppm with Septoria tritici [3] (setting [7]) was determined as 70%; in assay [4] (setting [12]), 20%. Also, in assay [4] (setting [8]), the inhibition at 0.00390625 ppm amounted to 0%. Besides, the inhibition at 0.0078125 ppm in assay [4] (setting [9]) turned out to be 0%.
Turning to `Fc1ccc([C@]2(Cn3cncn3)O[C@H]2c2ccccc2Cl)cc1` (racemic) [Epoxiconazole], the inhibition of growth at 0.15625 ppm in the assay on Septoria tritici [2] (solo, rate 0.15625 ppm, read-out: Activity) was 65%. In the assay with Septoria tritici [2] (solo, rate 0.625 ppm), the inhibition of growth at 0.625 ppm stood at 71%.
For `CC(C)(C)C(O)(CCc1ccc(Cl)cc1)Cn1cncn1` (centres unmarked) [Tebuconazole], the inhibition of growth at 1.25 ppm with Septoria tritici [2] (solo, rate 1.25 ppm) was 0%. Further, in the assay with Septoria tritici [2] (solo, rate 2.5 ppm), the inhibition of growth at 2.5 ppm is 47%. In addition, the inhibition of growth at 5 ppm with Septoria tritici [2] (solo, rate 5 ppm) amounted to 73%.
On to `CC(Cc1ccc(C(C)(C)C)cc1)CN1C[C@@H](C)O[C@@H](C)C1` (some centres unmarked) [Fenpropimorph], for which the inhibition at 0.0625 ppm in assay [5] (setting [13]) is 0%; in assay [5] (setting [17]), 0%; with Botrytis cinerea (Botrytis cinerea, alone, rate 0.0625 ppm, read-out: Activity (%)) it was 0%; in assay [4] (setting [12]), 70%. Further, the inhibition at 0.125 ppm in assay [5] (setting [14]) is 0%; in assay [5] (setting [18]), 0%; with Botrytis cinerea (Botrytis cinerea, alone), 0%; with Botrytis cinerea (setting [19]), 0%. Besides, the inhibition at 0.25 ppm in assay [5] (setting [15]) came to 0%; in the assay on Botrytis cinerea (Botrytis cinerea, alone), 0%; with Botrytis cinerea (setting [19]), 0%. The inhibition at 0.5 ppm in assay [5] (Monographella nivalis, 0.5 ppm) was 0%; with Botrytis cinerea (Botrytis cinerea, alone) it was 70%; in the assay with Botrytis cinerea (setting [19]), 70%. In assay [5] (Monographella nivalis, 2 ppm), the inhibition at 2 ppm was determined as 20%. In addition, the inhibition at 0.0078125 ppm was 0% in assay [5] (Monographella nivalis, rate 0.0078125 ppm) and 20% in assay [4] (setting [9]). For the same compound, the results for the inhibition at 0.015625 ppm in assay [5] (Monographella nivalis) and in assay [4] (setting [10]) were 0% and 50%, respectively. The inhibition at 0.03125 ppm came out at 0% in assay [5] (setting [16]) and 50% in assay [4] (setting [11]). In addition, in assay [4] (setting [8]), the inhibition at 0.00390625 ppm came to 20%.
`N#Cc1c[nH]cc1-c1cccc2c1OC(F)(F)O2` [Fludioxonil]: the inhibition at 0.03125 ppm is 0% with Botrytis cinerea (Botrytis cinerea, read-out: Activity (%), alone, rate 0.03125 ppm) and 0% in assay [4] (Mycosphaerella arachidis, read-out: Activity (%), single compound, 0.03125 ppm). Besides, the inhibition at 0.0625 ppm with Botrytis cinerea (Botrytis cinerea, read-out: Activity (%), alone, rate 0.0625 ppm) is 70%; in assay [4] (Mycosphaerella arachidis, read-out: Activity (%), single compound, 0.0625 ppm), 0%. Besides, the “Activity (%)” value stood at 50% with Botrytis cinerea (alone, rate 0.0625 ppm) and 50% in assay [4] (single compound, 0.5 ppm). Also, the inhibition at 0.25 ppm with Septoria tritici [3] (Zymoseptoria tritici, read-out: Activity (%)) is 70%; in assay [4] (Mycosphaerella arachidis, read-out: Activity (%), single compound, 0.25 ppm), 0%. In addition, the inhibition at 0.00390625 ppm in assay [4] (Mycosphaerella arachidis, read-out: Activity (%), single compound, 0.00390625 ppm) was 0%. Further, the inhibition at 0.0078125 ppm in assay [4] (Mycosphaerella arachidis, read-out: Activity (%), single compound, 0.0078125 ppm) came out at 0%. For the same compound, the inhibition at 0.015625 ppm in assay [4] (Mycosphaerella arachidis, read-out: Activity (%), single compound, 0.015625 ppm) was determined as 0%. In assay [4] (Mycosphaerella arachidis, read-out: Activity (%), single compound, 0.125 ppm), the inhibition at 0.125 ppm was 0%. Besides, in assay [4] (Mycosphaerella arachidis, read-out: Activity (%), single compound, 0.5 ppm), the inhibition at 0.5 ppm came to 70%.
For `Cn1cc(C(=O)Nc2ccc(F)cc2-c2ccc(Cl)c(Cl)c2)c(C(F)F)n1` [Bixafen], the “Activity (%)” value in assay [5] (0.25 ppm) is on record as 20%; in assay [4] (single compound, 0.03125 ppm) it was 50%; in assay [4] (single compound, 0.0625 ppm) it was 70%.
Consider `CC1(C)CCC(Cc2ccc(Cl)cc2)C1(O)Cn1cncn1` (centres unmarked) [Metconazole], for which the inhibition at 0.0625 ppm was 0% in assay [5] (setting [13]), 0% in assay [5] (setting [17]) and 70% with Septoria tritici [3] (setting [7]). For the same compound, the inhibition at 0.125 ppm in assay [5] (setting [14]) and in assay [5] (setting [18]) was 0% throughout. In addition, the inhibition at 0.25 ppm in assay [5] (setting [15]) and in assay [5] (setting [20]) was 0% each time. The inhibition at 0.5 ppm in assay [5] (Monographella nivalis, 0.5 ppm) came to 0%; in assay [5] (setting [21]), 0%. In addition, the inhibition at 1 ppm in assay [5] (Monographella nivalis, 1 ppm) was determined as 20%; in assay [5] (setting [22]), 20%. Besides, the inhibition at 0.015625 ppm in assay [5] (Monographella nivalis) amounted to 0%; in the assay on Botrytis cinerea (Botrytis cinerea, alone, rate 0.015625 ppm), 0%. The inhibition at 0.03125 ppm in assay [5] (setting [16]) is 0%; in the assay on Botrytis cinerea (Botrytis cinerea, alone, rate 0.03125 ppm, read-out: Activity (%)), 0%; in the assay on Septoria tritici [3] (setting [6]), 0%. The “Activity (%)” value with Septoria tritici [3] (single compound, 0.0625 ppm) came out at 50%.
Turning to `OC(Cn1cncn1)(c1ccc(F)cc1)c1ccccc1F` (centres unmarked) [Flutriafol], the inhibition at 0.0625 ppm in assay [5] (setting [13]) and in assay [5] (setting [17]) was 0% throughout. Further, the inhibition at 0.125 ppm in assay [5] (setting [14]) is 0%; in assay [5] (setting [18]) it was 0%; in the assay on Botrytis cinerea (Botrytis cinerea, alone), 0%. The inhibition at 0.25 ppm was 0% in assay [5] (setting [15]); 0% in assay [5] (setting [20]); 0% in the assay on Botrytis cinerea (Botrytis cinerea, alone). The inhibition at 0.5 ppm was 0% in assay [5] (Monographella nivalis, 0.5 ppm); 0% in assay [5] (setting [21]); 0% with Botrytis cinerea (Botrytis cinerea, alone); 0% in the assay with Septoria tritici [3] (Zymoseptoria tritici, single compound, 0.5 ppm). In assay [5] (setting [16]), this compound registered an inhibition at 0.03125 ppm of 0%. The inhibition at 1 ppm in assay [5] (setting [22]) came out at 0%; in the assay on Botrytis cinerea (Botrytis cinerea, alone, rate 1 ppm), 0%; with Septoria tritici [3] (Zymoseptoria tritici, single compound, 1 ppm), 0%. Besides, the inhibition at 2 ppm in assay [5] (Monographella nivalis, rate 2 ppm) is 0%; with Botrytis cinerea (Botrytis cinerea, alone, rate 2 ppm) it was 0%.
Take `Cc1cc(C2CC2)nc(Nc2ccccc2)n1` [Cyprodinil]: the inhibition at 0.0015625 ppm in assay [5] (Monographella nivalis, 0.0015625 ppm) was 0%; in assay [4] (Mycosphaerella arachidis, single compound, 0.0015625 ppm), 0%. In addition, the inhibition at 0.003125 ppm in assay [5] (Monographella nivalis, 0.003125 ppm) is 20%; in assay [4] (Mycosphaerella arachidis, single compound, 0.003125 ppm), 0%. Moreover, the inhibition at 0.00078125 ppm in assay [4] (Mycosphaerella arachidis, single compound, 0.00078125 ppm) is 0%. In assay [4] (Mycosphaerella arachidis, single compound, 0.00125 ppm), this compound showed an inhibition at 0.00125 ppm of 0%. For the same compound, the inhibition at 0.025 ppm in assay [4] (Mycosphaerella arachidis, single compound, 0.025 ppm) is 0%. The same compound displayed an inhibition at 0.05 ppm in assay [4] (Mycosphaerella arachidis, single compound, 0.05 ppm) of 0%. Further, in assay [4] (setting [12]), the inhibition at 0.0625 ppm was found to be 0%. In addition, the inhibition at 0.1 ppm in assay [4] (Mycosphaerella arachidis, single compound, 0.1 ppm) worked out at 0%. In assay [4] (Mycosphaerella arachidis, single compound, 0.2 ppm), the inhibition at 0.2 ppm was determined as 0%.
As for `Cn1cc(C(=O)Nc2ccccc2C2CC2C2CC2)c(C(F)F)n1` (centres unmarked) [Sedaxan], the “Activity (%)” value in assay [4] (single compound, 0.00390625 ppm) worked out at 0%; in assay [4] (single compound, 0.015625 ppm), 0%; in assay [4] (single compound, 0.03125 ppm) it was 0%; in assay [4] (single compound, 0.0625 ppm), 0%; in assay [4] (single compound, 0.125 ppm), 0%.
Consider `C#CCOc1ccc(CCNC(=O)C(OCC#C)c2ccc(Cl)cc2)cc1OC` (centres unmarked) [Mandipropamid], for which the “Activity (%)” value in assay [5] (rate 0.03125 ppm) worked out at 0%; in assay [5] (rate 0.0625 ppm), 0%; with Botrytis cinerea (alone, rate 5 ppm), 0%; in the assay on Botrytis cinerea (alone, rate 10 ppm), 0%; in the assay on Botrytis cinerea (alone, rate 20 ppm), 0%; with Septoria tritici [3] (single compound, 0.5 ppm) it was 70%.
